Source: patent US5157019A, “Serine protease inhibitors” (Monsanto Company, priority 1991, dated 1992)
Where two headings read alike, the source gives them in different places. Ends that are not written are not given here.

Tests used:
Assay type in all cases: biochemical
[1] = biological target: T1, HUMAN SPUTUM ELASTASE (Homo sapiens, UniProt P08246); experiment: Elastase assay (MeO-Suc-Ala-Pro-Val-pNA); details: 200 μM peptide
T1 construct: HUMAN SPUTUM ELASTASE; purchased Elastin Products Company SE563; host or cells: human sputum (from the product name)
T1 sequence (P08246 30-267): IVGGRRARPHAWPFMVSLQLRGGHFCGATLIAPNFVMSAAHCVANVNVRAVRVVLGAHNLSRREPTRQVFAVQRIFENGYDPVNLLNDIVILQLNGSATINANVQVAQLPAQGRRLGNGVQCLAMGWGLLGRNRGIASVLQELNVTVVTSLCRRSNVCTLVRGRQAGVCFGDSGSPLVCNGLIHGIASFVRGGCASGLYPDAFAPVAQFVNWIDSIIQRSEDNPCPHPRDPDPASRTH
Method: Enzyme used is "HUMAN SPUTUM ELASTASE®" which is an enzyme which is the target protease for α1 antitrypsin from Elastin Products Company, Catalog No. SE563, lot 85071, 875 units/mg as determined by supplier with N-Suc-Ala-Ala-Ala-pNA; prepared at 0.2 mg/mL in 0.1M Tris·HCl, pH 8.8 at 37 degrees C. An amount of enzyme is used to give approximately 0.1 change in Absorbance/min; which in this assay was 1 μg.
The substrate is MeO-Suc-Ala-Pro-Val-pNA, Sigma Catalog No. M-4765. About 50 mg of the substrate is dissolved in 1 ml of 1-methyl-2-pyrrolidinone and diluted to 33 mls. with 0.1M Tris-HCl, pH 7.5, containing 0.5M NaCl, and 0.01 wt % sodium azide.
Peptide solutions are prepared at 500 μM, using 1.5% of the final volume of DMSO first and diluting with distilled water (DW) or 0.1M Tris.HCl, pH 8.8 at 37 degrees C. [formula]

[2] = biological target: Thrombin (Homo sapiens, UniProt P00734); experiment: Coagulation inhibition assay, thrombin (fibrinogen clotting end point); details: 40 μM peptide
Method: Inhibitory activity of subject peptides toward thrombin and Factor Xa were done in the following manner. Mix 100 μL Thrombin (3.125 units/ml, 1.125 μg/ml) in TAB with […] Peptide in TAB and incubate for 1 minute at 37° C. Add 50 μL Fibrinogen (2 mg/ml)and measure clotting end point (in seconds) in a Fibrometer (BBL) TAB=Thrombin Assay Buffer: 0.15M NaCl, 6.6 gm/L PEG-6000, 0.01M Imidazole, 0.01 CaCl2, pH 7.4

[3] = biological target: T2, C1s (Homo sapiens, UniProt P09871); experiment: C1s assay by inhibition of fluid phase C4 activation
T2 construct: prepared from pooled human plasma; from tissue; host or cells: pooled human plasma
T2 sequence (P09871 16-688): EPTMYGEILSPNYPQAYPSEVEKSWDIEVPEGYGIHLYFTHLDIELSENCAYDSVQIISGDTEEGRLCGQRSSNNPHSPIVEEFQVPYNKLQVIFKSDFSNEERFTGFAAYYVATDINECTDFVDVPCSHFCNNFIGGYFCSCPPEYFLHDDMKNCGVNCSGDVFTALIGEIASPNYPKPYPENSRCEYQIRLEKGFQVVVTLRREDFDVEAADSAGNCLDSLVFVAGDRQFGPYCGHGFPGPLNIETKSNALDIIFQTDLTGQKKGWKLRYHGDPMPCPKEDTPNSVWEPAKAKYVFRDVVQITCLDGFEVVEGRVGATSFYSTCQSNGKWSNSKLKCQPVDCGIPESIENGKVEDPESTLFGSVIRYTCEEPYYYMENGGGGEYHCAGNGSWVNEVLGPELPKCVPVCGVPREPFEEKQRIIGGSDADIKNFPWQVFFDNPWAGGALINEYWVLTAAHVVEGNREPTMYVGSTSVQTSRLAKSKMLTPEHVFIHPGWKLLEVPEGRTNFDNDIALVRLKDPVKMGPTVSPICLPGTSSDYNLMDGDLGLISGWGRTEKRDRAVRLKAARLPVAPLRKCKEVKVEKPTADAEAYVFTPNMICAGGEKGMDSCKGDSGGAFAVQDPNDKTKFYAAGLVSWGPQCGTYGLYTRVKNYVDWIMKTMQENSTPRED
Method: Highly purified C3, C4, Factor D, Factor B, and C1s were prepared from pooled human plasma. Factors B and C4 were radiolabeled by periodate oxidation of sialic acid residues, followed by reduction with tritiated sodium borohydride. In a representative experiment, a solution of 1.2 mg of factor B in 1.8 ml of PBS was treated with 70 μl of 0.1M NaIO4. After 10 min incubation on ice, excess reagent was removed by filtration over "SEPHADEX®" which is a matrix for gel chromatography (1.0 cm×20 cm). To the protein pool was added 60 μl of NaB[^3 H]4 solution and incubated for 30 min on ice. Labeled protein was separated from excess reagent by desalting or dialysis. Human C4 was radiolabeled in the same manner. Radiolabeled proteins were stored at -70° C. in PBS. The specific radioactivity of ^3 H factor B was about 10,000 CPM/μg and that of ^3 H-C4 was 5,000 CPM/μg.
The cleavage of C4 was studied by incubating 10 μg of tritiated C4 with 3-5 ng of C1s at 37° C. for 30 min in 100 μl of PBS (pH 7.10) containing different concentrations of inhibitor. The reaction was stopped by the addition of 2-mercaptoethanol. The extent of cleavage was analyzed by SDS-polyacrylamide gel electrophoresis. The stained bands corresponding to C4α and C4α' were cut out and sliced. The radioactivity of the fragments was measured by liquid scintillation counting. The percent cleavage of the reaction was calculated as follows: [formula]
Electrophoresis was carried out under reducing conditions in the Laemmli system using slab gel of 8% polyacrylamide. The gels were stained and destained (Fairbanks et al. Biochemistry (1971) 10:2606).
The percent inhibition of the reaction was calculated according to the following relationship: [formula]
A: % cleavage without inhibitor
B: % cleavage with inhibitor
The concentration inducing 50% inhibition was obtained by plotting the percent inhibition on a probability graph (National Blank Book Co., No. 12-083) on the ordinate and the log of the inhibitor concentration on the abscissa. From this graph, a 50% inhibition concentration IC50 was obtained and this value was employed to express the activity.

[4] = biological target: Factor Xa (Homo sapiens, UniProt P00742); experiment: Coagulation inhibition assay, Factor Xa (clotting of Factor X deficient plasma); details: 40 μM peptide
Factor Xa, sequence (P00742 235-488 limits assumed): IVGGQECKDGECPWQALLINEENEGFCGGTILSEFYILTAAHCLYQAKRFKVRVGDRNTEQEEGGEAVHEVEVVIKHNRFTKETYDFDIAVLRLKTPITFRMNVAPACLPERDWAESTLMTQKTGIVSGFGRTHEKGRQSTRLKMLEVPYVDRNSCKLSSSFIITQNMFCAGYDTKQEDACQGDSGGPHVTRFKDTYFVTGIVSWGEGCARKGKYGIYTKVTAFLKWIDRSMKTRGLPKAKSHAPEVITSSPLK
Factor Xa, sequence (P00742 41-179 partner limits assumed): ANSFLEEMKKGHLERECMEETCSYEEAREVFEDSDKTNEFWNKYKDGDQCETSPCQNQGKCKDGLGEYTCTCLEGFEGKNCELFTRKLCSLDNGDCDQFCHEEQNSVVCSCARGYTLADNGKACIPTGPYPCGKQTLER
Method: Inhibitory activity of subject peptides toward thrombin and Factor Xa were done in the following manner.
Mix 50 μL Factor Xa (0.1 μg/ml) in TBSA with 100 μL Peptide in TBSA and 50 μL CaCl2 25 mM and incubate for 1 minute at 37° C. Add 50 μL Factor X deficient plasma/RBC (10/1) and measure clotting end point (in seconds) in a Fibrometer (BBL)
TBSA=Tris-Saline with Bovine Serum Albumin: 0.1M NaCl,0.05 M Tris-HCl, 1 mg/ml BSA, 0.1% NaN3
Factor X deficient plasma: George King Biomedical (GK 1004) RBC=Rabbit Brain Cephalin: Sigma Chemical Co. St. Louis, Mo.

[5] = Tables VI and VIII, % 50, read-out: C1s, μM concentration listed for 50 % inhibition

Compound: CC[C@H](C)[C@H](NC(=O)[C@H](CC(C)C)NC(=O)[C@H](Cc1ccccc1)NC(=O)[C@@H](NC(=O)[C@H](Cc1ccccc1)NC(=O)[C@@H]1CCCN1C(=O)[C@H](CCCCN)NC(=O)[C@H](CC(N)=O)NC(=O)[C@H](Cc1ccccc1)NC(=O)[C@H](CCCCN)NC(=O)[C@@H](NC(=O)[C@H](CCC(=O)O)NC(=O)[C@@H]1CCCN1C(=O)[C@@H]1CCCN1)C(C)C)C(C)C)C(=O)O [Peptide 1]
- Elastase Inhibition [1]: no inhibitory activity
- inhibition at 200 µM [1]: 0%
- inhibition at 40 µM [2]: 0%
- inhibition at 200 µM ([3]; 200 μM peptide): 0%
- inhibition at 40 µM [4]: 31%

Compound: AGRSLNPNRVTFKANRPFLVFIREVPLNTIIFLGRVANP [Peptide 27]
- inhibition at 200 µM [1]: 0%
- inhibition at 40 µM [2]: 97%
- IC50 ([3]; Table X, μM concentration at which protease was inhibited 50%, read-out: IC50 C1S): 12 µM

Compound: IVRFNRPFLLII [Peptide 3]
- inhibition at 200 µM [1]: 0%
- inhibition at 40 µM [2]: 50%
- IC50 [3, 5]: 55 µM
- inhibition at 40 µM [4]: 73%

Compound: IVRFNRPFLLIIVPTDTQNIFFLSKVTNPSKPR [Peptide 22]
- Elastase Inhibition [1]: 0%
- Thrombin inhibition [2]: 90%
- IC50 [3, 5]: 6 µM
- Factor Xa % inhibition [4]: 97%

Compound: PNRVTFKANRPFLVFI [Peptide 2]
- inhibition at 200 µM [1]: 0%
- IC50 [3, 5]: 34 µM
- inhibition at 40 µM [4]: 51%

Compound: RVTFKANRPFLVFIREVPLNTIIFLGRVANP [Peptide 21]
- inhibition at 200 µM [1]: 0%
- inhibition at 40 µM [2]: 97%
- IC50 [3, 5]: 6 µM
- inhibition at 40 µM [4]: 99%

Compound: VKFNKPFVFLLIEQNTKSPLFLGKVVNPTQK [Peptide 20]
- Elastase Inhibition [1]: 0%
- Thrombin inhibition [2]: 71%
- IC50 [3, 5]: 12 µM
- Factor Xa % inhibition [4]: 87%
